Reference: patent US20090209525A1, “ENABLING METHODS TO IDENTIFY ALLOSTERIC MODULATORS OF RECEPTOR ACTIVITY” (priority 2006, published 2009)
Residue numbers refer to the chain shown, from its start.

Columns and labels:
[1] = biological target: T1, rat M1 S109A receptor (Rattus norvegicus, UniProt P08482, S109A); assay: ^3H-NMS radioligand binding, S109A; settings: for Shift: Ki S109A divided by Ki wild-type
T1 construct: expressed in transfected cells
T1 sequence (P08482 1-460 S109A): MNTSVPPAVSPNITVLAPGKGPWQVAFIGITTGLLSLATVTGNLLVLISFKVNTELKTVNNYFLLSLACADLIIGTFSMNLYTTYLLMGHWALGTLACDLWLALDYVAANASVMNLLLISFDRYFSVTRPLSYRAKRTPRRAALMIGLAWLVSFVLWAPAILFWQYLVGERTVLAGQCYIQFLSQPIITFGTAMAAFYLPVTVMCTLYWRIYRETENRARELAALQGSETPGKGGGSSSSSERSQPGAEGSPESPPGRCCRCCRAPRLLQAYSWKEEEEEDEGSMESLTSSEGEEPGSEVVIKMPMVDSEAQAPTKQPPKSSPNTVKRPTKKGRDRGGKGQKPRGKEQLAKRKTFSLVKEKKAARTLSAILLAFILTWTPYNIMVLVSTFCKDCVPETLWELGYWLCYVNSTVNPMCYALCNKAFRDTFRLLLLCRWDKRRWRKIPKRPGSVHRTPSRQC
Experimental: Briefly, cell homogenates are prepared from cells transiently or stably expressing wild type or mutant receptors. For transiently transfected cells, HEK cells are transfected with receptor of interest and cells harvested 48 hours post transfection. Cells expressing the receptor, stably or transiently, are harvested using phosphate buffered saline containing 5 mM EDTA, cells centrifuged at low speed and pellet re-suspended in binding buffer. Cell suspension is polytroned and centrifuged at 15,000×g. The pellet is resuspended in binding buffer and centrifugation repeated two more times. The washed cell homogenates are used for the competition binding assays. Competition binding assays are carried out in the presence of fixed amount of cell homogenate, fixed concentration of radioactively labeled orthosteric or allosteric ligand and varying concentrations of the cal under study using appropriate buffer. Incubations are carried out at room temperature for 2 hours. Incubations are terminated by filtration onto GF/B filters using Packard cell harvester followed by 3 washes with ice-cold buffer. Radioactivity retained on the filters is quantitated using Packard Top Count using Microscint 20 scintillation fluid. […] The membranes prepared above are incubated with a labeled ligand in 25 mM sodium phosphate, 5 mM magnesium chloride, 0.01% BSA two hours at room temperature. The binding reaction is stopped by rapid filtration onto GF/B filters. […] The pKd values (pKd=−log Kd) of the labeled ligand are calculated.
Radioligand binding assays were carried out in 25 mM sodium phosphate, 5 mM magnesium chloride, 0.01% BSA. Incubations were for two hours at room temperature, and reactions were stopped by rapid filtration onto GF/B filters.

[2] = biological target: T2, rat M1 wild-type receptors (Rattus norvegicus, UniProt P08482); assay: R-SAT functional assay, wild-type receptor; assay type: cell-based; settings: for EC50: read-out: pEC50 (converted); for Shift: EC50 divided by EC50 for wild-type (reference)
T2 construct: expressed in transfected cells
T2 sequence (P08482 1-460): T1 sequence (P08482 1-460 S109A) with A109S
Experimental: Cells are co-transfected for 18 h with DMEM containing 0.08 micrograms/ml of an expression vector for the expression of the mutant receptor and 0.3 micrograms/ml pSI-Bgal (Promega, Madison Wis.), and 0.5% v/v Polyfect (Qiagen, Valencia Calif.), as recommended by the manufacturer. On day three, the medium is replaced with DMEM containing 1% PSG, 0.5% calf serum, 2% cyto-sf3 (Kemp Biotechnologies, Frederick, Md.), and varying concentrations of the compounds to be tested. Cells are grown in a humidified atmosphere with 5% ambient CO2 for 5 days. The media is removed from the plates, and beta-galactosidase activity is measured by the addition of o-nitrophenyl -d-galactopyranoside in phosphate-buffered saline with 5% Nonidet P-40. […] The following equation is fitted to the data using GraphPad Prism software (San Diego, Calif.):
NIH-3T3 cells were grown in 96-well tissue culture plates to 70 to 80% confluence in Dulbecco's modified essential media (DMEM) supplemented with 100 units/ml penicillin, 100 micrograms/ml streptomycin, 0.3 mg/ml L-glutamine (1% PSG, GIBCO) and 10% calf serum (Sigma-Aldrich). Cells were transfected for 18 h with DMEM containing 0.08 micrograms/ml receptor DNA and 0.3 micrograms/ml pSI-Bgal (Promega, Madison Wis.), 0.5% v/v Polyfect (Qiagen, Valencia Calif.). Medium was replaced with DMEM containing 1% PSG, 0.5% calf serum, 2% cyto-sf3 (Kemp Biotechnologies, Frederick, Md.), and varying concentrations of ligand. […] Cells were grown in a humidified atmosphere with 5% ambient CO2 for 5 days. Medium was removed from the plates, and beta-galactosidase activity was measured by the addition of o-nitrophenyl -d-galactopyranoside in phosphate-buffered saline with 5% Nonidet P-40.
Receptor Selection and Amplification (R-SAT™) Assays: R-SAT™ functional assays were carried out as follows. NIH-3T3 cells were grown in 96-well tissue culture plates to 70 to 80% confluence in Dulbecco's modified essential media (DMEM) supplemented with 100 units/ml penicillin, 100 micrograms/ml streptomycin, 0.3 mg/ml L-glutamine (1% PSG, GIBCO) and 10% calf serum (Sigma-Aldrich). Cells were transfected for 18 h with DMEM containing 0.08 micrograms/ml receptor DNA and 0.3 micrograms/ml pSI-Bgal (Promega, Madison Wis.), 0.5% v/v Polyfect (Qiagen, Valencia Calif.). The transfected cells were frozen away. Cells were thawed and added to 96 well plates with DMEM containing 1% PSG, 0.5% calf serum, 2% cyto-sf3 (Kemp Biotechnologies, Frederick, Md.), and varying concentrations of ligand.
In an effort to further characterize monoamine modulators, we used a panel of mutant muscarininc M1 receptors to analyze the activity and potency of orthosteric modulators and various allosteric modulators at those receptors.

[3] = biological target: T2, rat M1 wild-type receptors; assay: Phosphatidyl inositol hydrolysis assay, wild-type; assay type: cell-based; settings: for Shift: EC50 divided by EC50 wild-type (reference)
[4] = Table 2, maximum response relative to maximum response of carbachol
[5] = Table 3, M1 WT, maximum response, normalized
[6] = Table 4, M1 wild type, maximum response relative to xanomeline
[7] = Table 10, M1 Wild-Type, NA = non-active
[8] = Table 10, M1 Wild-Type, maximum response relative to carbachol
[9] = Table 5, PI hydrolysis, maximum response relative to carbachol
[10] = Table 6, PI hydrolysis, M1 WT, maximum response, normalized

IC50 [1]	Shift [1]	Eff (%) [2, 4]	EC50 ([2]; Table 2, mean +/- S.E.M., n=5)	Shift ([2]; Table 3)	Eff (%) [2, 5]	EC50 ([2]; Table 3, M1 WT)	% Eff [2, 6]	EC50 ([2]; Table 4, M1 wild type)	EC50 [2, 7]	% Eff [2, 8]	Eff (%) [3, 9]	Shift ([3]; Table 6)	EC50 ([3]; Table 6, PI hydrolysis, M1 WT)	Eff (%) [3, 10]	EC50 ([3]; Table 5, PI hydrolysis, wild-type)	pEC50 ([3]; Table 6, PI hydrolysis, M1 WT)	Compound
631 nM	4	79 ± 14%	50.1 nM	1	78 ± 4%	50.1 nM	43%	31.6 nM	100 nM	93%	44 ± 17%	1	100 nM	55 ± 8%	–	–	Clc1ccc2c(c1)N=C(N1CCNCC1)c1ccccc1N2 [NDMC, 8-chloro-11-(1-piperazinyl)-5H-dibenzo [b,e] [1,4] diazepine]
1580 nM	1	89 ± 11%	15.8 nM	1	89 ± 6%	15.8 nM	59%	25.1 nM	25.1 nM	109%	99 ± 20%	1	–	100 ± 7%	50.1 nM	7.3 ± 0.1	CCCCC1CCN(CCCN2C(=O)COc3cc(F)ccc32)CC1 [AC-260584, 4-[3-(4-Butyl-piperidin-1-yl)-propyl]-7-fluoro-4H-benzo [1,4]oxazin-3-one]

Compound	IC50 [1]	Shift [1]	Eff (%) [2, 4]	EC50 ([2]; Table 2, mean +/- S.E.M., n=5)	Shift ([2]; Table 3)	Eff (%) [2, 5]	EC50 ([2]; Table 3, M1 WT)	% Eff [2, 6]	EC50 ([2]; Table 4, M1 wild type)	EC50 [2, 7]	% Eff [2, 8]	Eff (%) [3, 9]	Shift ([3]; Table 6)	EC50 ([3]; Table 6, PI hydrolysis, M1 WT)	Eff (%) [3, 10]	EC50 ([3]; Table 5, PI hydrolysis, wild-type)	pEC50 ([3]; Table 6, PI hydrolysis, M1 WT)
CCCCC1CCN(CCCC(=O)c2ccccc2C)CC1 [AC-42, 4-n-butyl-1-[4-(2-methylphenyl)-4-oxo-1-butyl] piperidine hydrogen chloride]	2510 nM	0.5	48 ± 11%	158 nM	1	47 ± 5%	158 nM	24%	–	200 nM	56%	–	–	–	–	–	–
